Measured values published in ChEMBL document CHEMBL1143045, “Tricyclic isoxazolines: identification of R226161 as a potential new antidepressant that combines potent serotonin reuptake inhibition and alpha2-adrenoceptor antagonism” (Bioorg Med Chem, 2007).

What was measured:
[1] = target: T1, Alpha-2B adrenergic receptor (Homo sapiens, UniProt P18089); assay: Displacement of [3H]rawolscine from human cloned adrenergic alpha-2B receptor transfected in CHO cells; assay type: cell-based
T1 sequence (P18089 whole entry): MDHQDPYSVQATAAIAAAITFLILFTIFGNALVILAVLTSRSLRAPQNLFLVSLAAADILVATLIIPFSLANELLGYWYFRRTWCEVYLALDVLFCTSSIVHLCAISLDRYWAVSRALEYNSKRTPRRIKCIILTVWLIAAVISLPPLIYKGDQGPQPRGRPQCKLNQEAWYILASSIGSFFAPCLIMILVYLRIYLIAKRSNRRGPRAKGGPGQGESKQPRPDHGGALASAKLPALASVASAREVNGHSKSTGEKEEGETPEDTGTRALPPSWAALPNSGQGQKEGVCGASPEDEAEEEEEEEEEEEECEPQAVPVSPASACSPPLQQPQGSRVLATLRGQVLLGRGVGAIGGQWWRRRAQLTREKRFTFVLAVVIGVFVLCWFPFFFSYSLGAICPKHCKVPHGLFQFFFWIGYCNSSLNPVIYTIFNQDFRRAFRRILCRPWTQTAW

[2] = target: T2, Alpha-2A adrenergic receptor (Homo sapiens, UniProt P08913); assay: Displacement of [3H]rawolscine from human cloned adrenergic alpha2A receptor transfected in CHO cells; assay type: cell-based
T2 sequence (P08913 whole entry): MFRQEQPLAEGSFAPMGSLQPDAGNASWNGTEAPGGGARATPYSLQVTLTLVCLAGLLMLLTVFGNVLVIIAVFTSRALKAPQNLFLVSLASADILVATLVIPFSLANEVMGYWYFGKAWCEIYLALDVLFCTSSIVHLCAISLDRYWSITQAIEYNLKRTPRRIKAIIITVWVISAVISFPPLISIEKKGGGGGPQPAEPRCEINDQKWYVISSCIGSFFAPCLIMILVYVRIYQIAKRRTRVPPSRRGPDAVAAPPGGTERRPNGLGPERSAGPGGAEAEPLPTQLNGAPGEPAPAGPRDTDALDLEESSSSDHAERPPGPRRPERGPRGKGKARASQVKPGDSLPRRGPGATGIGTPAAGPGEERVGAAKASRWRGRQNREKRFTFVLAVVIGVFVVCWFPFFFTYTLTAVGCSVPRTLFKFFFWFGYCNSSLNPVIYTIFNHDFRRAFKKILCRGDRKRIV

[3] = target: T3, Alpha-2C adrenergic receptor (Homo sapiens, UniProt P18825); assay: Displacement of [3H]rawolscine from human cloned adrenergic Alpha-2C receptor transfected in CHO cells; assay type: cell-based
T3 sequence (P18825 whole entry): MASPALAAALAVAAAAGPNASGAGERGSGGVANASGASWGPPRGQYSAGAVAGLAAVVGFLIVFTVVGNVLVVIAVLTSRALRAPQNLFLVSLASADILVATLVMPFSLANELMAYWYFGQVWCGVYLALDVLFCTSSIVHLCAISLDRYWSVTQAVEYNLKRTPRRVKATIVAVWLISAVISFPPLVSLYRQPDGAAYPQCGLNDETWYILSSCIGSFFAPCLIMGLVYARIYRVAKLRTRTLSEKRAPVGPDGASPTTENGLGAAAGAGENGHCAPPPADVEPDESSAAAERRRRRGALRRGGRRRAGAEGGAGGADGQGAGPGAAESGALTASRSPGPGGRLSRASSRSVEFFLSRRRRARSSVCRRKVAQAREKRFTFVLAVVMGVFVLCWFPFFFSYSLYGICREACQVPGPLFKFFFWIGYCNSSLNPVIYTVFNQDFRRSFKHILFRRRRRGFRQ

[4] = target: Sodium-dependent serotonin transporter (Rattus norvegicus) (UniProt P31652); assay: Antagonism of p-chloroamphetamine-induced excitation in po dosed Wistar rat after 1 hr; assay type: functional, organism-based
[5] = target: T4, Adrenergic receptor alpha-2 (Rattus norvegicus) (UniProt P22086+P19328+P22909); assay: Reversal of medetomidine-induced loss of righting reflex in sc dosed Wistar rat after 1hr; assay type: functional, organism-based
[6] = target: T4, Adrenergic receptor alpha-2 (Rattus norvegicus); assay: Reversal of medetomidine-induced loss of righting reflex in po dosed Wistar rat after 1hr; assay type: functional, organism-based
[7] = target: Sodium-dependent serotonin transporter (Rattus norvegicus) (UniProt P31652); assay: Antagonism of p-chloroamphetamine-induced 5HT depletion in sc dosed Wistar rat prefrontal cortex after 1 hr; assay type: functional, organism-based
[8] = target: Sodium-dependent serotonin transporter (Rattus norvegicus) (UniProt P31652); assay: Antagonism of p-chloroamphetamine-induced 5HT depletion in po dosed Wistar rat prefrontal cortex after 1 hr; assay type: functional, organism-based
[9] = target: Sodium-dependent serotonin transporter (Rattus norvegicus) (UniProt P31652); assay: Antagonism of p-chloroamphetamine-induced excitation in sc dosed Wistar rat after 1 hr; assay type: functional, organism-based
[10] = target: Sodium-dependent serotonin transporter (Homo sapiens, UniProt P31645); assay: Displacement of [3H]paroxetine from human cloned 5HTT receptor transfected in CHO cells; assay type: cell-based
Sodium-dependent serotonin transporter, sequence (P31645 whole entry): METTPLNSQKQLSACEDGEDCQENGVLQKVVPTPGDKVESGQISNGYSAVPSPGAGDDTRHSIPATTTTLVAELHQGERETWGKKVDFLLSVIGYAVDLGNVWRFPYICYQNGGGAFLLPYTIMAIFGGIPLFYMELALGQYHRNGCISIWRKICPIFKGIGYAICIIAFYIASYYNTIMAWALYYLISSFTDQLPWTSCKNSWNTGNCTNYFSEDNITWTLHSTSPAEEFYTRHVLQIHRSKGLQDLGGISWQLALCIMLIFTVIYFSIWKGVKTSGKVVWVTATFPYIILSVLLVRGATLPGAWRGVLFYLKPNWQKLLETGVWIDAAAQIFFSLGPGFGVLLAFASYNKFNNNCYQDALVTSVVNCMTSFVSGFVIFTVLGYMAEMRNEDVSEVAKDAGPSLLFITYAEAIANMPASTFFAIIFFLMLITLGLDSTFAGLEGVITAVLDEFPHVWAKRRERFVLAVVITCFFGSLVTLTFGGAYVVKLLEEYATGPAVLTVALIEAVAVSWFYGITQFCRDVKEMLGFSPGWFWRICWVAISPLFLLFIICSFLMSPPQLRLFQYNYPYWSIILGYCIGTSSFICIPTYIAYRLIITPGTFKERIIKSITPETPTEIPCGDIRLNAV

Sodium-dependent serotonin transporter (Rattus norvegicus), sequence (P31652 whole entry): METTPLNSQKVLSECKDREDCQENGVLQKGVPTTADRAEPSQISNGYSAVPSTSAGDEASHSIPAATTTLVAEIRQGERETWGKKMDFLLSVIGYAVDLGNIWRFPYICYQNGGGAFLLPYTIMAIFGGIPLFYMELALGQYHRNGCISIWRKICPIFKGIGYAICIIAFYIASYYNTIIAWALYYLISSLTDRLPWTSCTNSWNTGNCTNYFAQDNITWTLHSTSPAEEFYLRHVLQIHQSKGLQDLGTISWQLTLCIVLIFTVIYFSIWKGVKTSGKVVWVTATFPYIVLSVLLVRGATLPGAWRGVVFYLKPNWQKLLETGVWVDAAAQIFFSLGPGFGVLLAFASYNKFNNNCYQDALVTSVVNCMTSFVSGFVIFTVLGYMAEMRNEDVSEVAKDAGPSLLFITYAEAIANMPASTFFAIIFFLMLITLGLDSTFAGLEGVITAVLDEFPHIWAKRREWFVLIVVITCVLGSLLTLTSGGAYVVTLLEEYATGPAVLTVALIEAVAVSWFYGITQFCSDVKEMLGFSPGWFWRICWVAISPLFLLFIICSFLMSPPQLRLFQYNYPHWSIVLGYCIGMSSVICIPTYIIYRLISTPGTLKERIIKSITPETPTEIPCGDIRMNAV

Row | SMILES | Ki [1] | Ki [2] | Ki [3] | ED50 [4] | ED50 [5] | ED50 [6] | ED50 [7] | ED50 [8] | ED50 [9] | Ki [10]
1 | COc1cc2c(cc1OC)C1=NO[C@@H](CN3CCN(C/C(C)=C/c4ccc(F)cc4)CC3)[C@@H]1CO2 (stereo in doubt; form 2) | 21 nM | 28 nM | 10 nM |  |  |  |  |  |  | 
2 | COc1cc2c(cc1OC)C1=NOC(CN3CCN(C/C=C/c4ccc(F)cc4)CC3)C1CO2 (single isomer, unassigned; (+)) |  |  |  | 0.32 mg/kg | 3.1 mg/kg | 3.5 mg/kg | 0.03 mg/kg | 0.05 mg/kg | 0.05 mg/kg | 
3 | COc1cc2c(cc1OC)C1=NO[C@@H](CN3CCN(C/C(C)=C/c4ccc(F)cc4)CC3)[C@@H]1CO2 (racemic) | 8.4 nM |  |  |  |  |  |  |  |  | 
4 | COc1cc2c(cc1OC)C1=NOC(CN3CCN(C/C(C)=C/c4ccccc4)CC3)C1CN2 (single isomer, unassigned; (-)) [listing 1 of 2 here] | 26 nM |  | 8.3 nM |  |  |  |  |  |  | 24 nM
5 | COc1cc2c(cc1OC)C1=NOC(CN3CCN(C/C(C)=C/c4ccccc4)CC3)C1CN2 (single isomer, unassigned; (+)) [listing 1 of 2 here] | 4.5 nM |  | 0.93 nM |  |  |  |  |  |  | 79 nM
6 | COc1cc2c(cc1OC)C1=NOC(CN3CCN(C/C(C)=C/c4ccccc4)CC3)C1CN2 (single isomer, unassigned; (+)) [listing 2 of 2 here] |  |  |  | > 10 mg/kg | 0.08 mg/kg | 0.63 mg/kg | 4.1 mg/kg |  | > 10 mg/kg | 
7 | COc1cc2c(cc1OC)C1=NOC(CN3CCN(C/C=C/c4ccc(F)cc4)CC3)C1CO2 (cis isomer) | 162 nM | 117 nM | 72 nM |  |  |  |  |  |  | 14 nM
8 | COc1cc2c(cc1OC)C1=NOC(CN3CCN(C/C(C)=C/c4ccccc4)CC3)C1CN2 (single isomer, unassigned; (-)) [listing 2 of 2 here] |  |  |  | 3.2 mg/kg | > 10 mg/kg | > 10 mg/kg | 0.81 mg/kg |  | 0.32 mg/kg | 
